Here are results for 20 molecules from the NIST ThermoML archive (doi:10.1016/j.fluid.2009.08.017).

Numbers after ± are expanded uncertainties.

This data set can be described thus: activity coefficient (dimensionless); of the first substance listed, at infinite dilution; xn = mol fraction of the nth substance listed. The following applies: 101 kPa, Liquid, Chromatography, x1 = 0.

On to `CO` [methanol] + CCCCCCOCn1cc[n+](COCCCCCC)c1.O=S(=O)([N-]S(=O)(=O)C(F)(F)F)C(F)(F)F, for which the activity coefficient (298.15 K) is 1.17 ± 0.07; the activity coefficient (308.15 K) was found to be 1.06 ± 0.067; the activity coefficient (318.15 K) worked out at 0.978 ± 0.061; the activity coefficient (328.15 K) turned out to be 0.9 ± 0.057; the activity coefficient (338.15 K) was 0.834 ± 0.054; the activity coefficient (348.15 K) was found to be 0.776 ± 0.051. Moreover, the activity coefficient is, setting by setting: (358.15 K) 0.725 ± 0.048; (368.15 K) 0.681 ± 0.046.
As for `c1ccccc1` [benzene] + CCCCCCOCn1cc[n+](C)c1.O=S(=O)([N-]S(=O)(=O)C(F)(F)F)C(F)(F)F, the activity coefficient (298.15 K) was 0.802 ± 0.052; the activity coefficient (308.15 K) stood at 0.807 ± 0.052; the activity coefficient (318.15 K) worked out at 0.812 ± 0.053; the activity coefficient (328.15 K) amounted to 0.816 ± 0.053; the activity coefficient (338.15 K) worked out at 0.82 ± 0.053; the activity coefficient (348.15 K) came out at 0.824 ± 0.053. Besides, the activity coefficient by setting is: (358.15 K) 0.827 ± 0.053; (368.15 K) 0.832 ± 0.054.
`Cc1ccc(C)cc1` [1,4-dimethylbenzene] + CCCCCCOCn1cc[n+](COCCCCCC)c1.O=S(=O)([N-]S(=O)(=O)C(F)(F)F)C(F)(F)F: the activity coefficient came to 0.949 ± 0.06 (318.15 K); 0.952 ± 0.06 (328.15 K); 0.955 ± 0.06 (338.15 K); 0.958 ± 0.06 (348.15 K); 0.96 ± 0.06 (358.15 K); 0.962 ± 0.06 (368.15 K).
Turning to `C=CCCC` [1-pentene] + CCCCCCOCn1cc[n+](C)c1.O=S(=O)([N-]S(=O)(=O)C(F)(F)F)C(F)(F)F, the activity coefficient is, setting by setting: (298.15 K) 3.96 ± 0.27; (308.15 K) 3.86 ± 0.26; (318.15 K) 3.77 ± 0.26; (328.15 K) 3.69 ± 0.25; (338.15 K) 3.61 ± 0.25; (348.15 K) 3.53 ± 0.24. Also, the activity coefficient runs as follows: (358.15 K) 3.47 ± 0.24; (368.15 K) 3.41 ± 0.23.
In the case of `CCCO` [propan-1-ol] + CCCCCCOCn1cc[n+](COCCCCCC)c1.O=S(=O)([N-]S(=O)(=O)C(F)(F)F)C(F)(F)F, the activity coefficient was 1.31 ± 0.09 (298.15 K); 1.19 ± 0.08 (308.15 K); 1.09 ± 0.07 (318.15 K); 1 ± 0.063 (328.15 K); 0.929 ± 0.059 (338.15 K); 0.861 ± 0.055 (348.15 K). The activity coefficient was 0.803 ± 0.052 (358.15 K) and 0.752 ± 0.049 (368.15 K).
For the molecule `C=CCCCCC` [1-heptene] + CCCCCCOCn1cc[n+](C)c1.O=S(=O)([N-]S(=O)(=O)C(F)(F)F)C(F)(F)F, the activity coefficient is, setting by setting: (298.15 K) 6.16 ± 0.42; (308.15 K) 5.96 ± 0.41; (318.15 K) 5.79 ± 0.39; (328.15 K) 5.61 ± 0.38; (338.15 K) 5.44 ± 0.37; (348.15 K) 5.3 ± 0.36. In addition, the activity coefficient (358.15 K) amounted to 5.18 ± 0.35 and the activity coefficient (368.15 K) amounted to 5.05 ± 0.34.
For the molecule `CCCCCCCCCC` [decane] + CCCCCCOCn1cc[n+](COCCCCCC)c1.O=S(=O)([N-]S(=O)(=O)C(F)(F)F)C(F)(F)F, the activity coefficient runs as follows: (298.15 K) 7.38 ± 0.5; (308.15 K) 7 ± 0.48; (318.15 K) 6.66 ± 0.45; (328.15 K) 6.38 ± 0.43; (338.15 K) 6.11 ± 0.42; (348.15 K) 5.87 ± 0.4. Further, the activity coefficient (358.15 K) was found to be 5.65 ± 0.39 and the activity coefficient (368.15 K) was determined as 5.46 ± 0.37.
For the molecule `CCCCCCCCC` [nonane] + CCCCCCOCn1cc[n+](C)c1.O=S(=O)([N-]S(=O)(=O)C(F)(F)F)C(F)(F)F, the activity coefficient (298.15 K) came to 17.8 ± 1.2; the activity coefficient (308.15 K) was 16.6 ± 1.1; the activity coefficient (318.15 K) is 15.5 ± 1.1; the activity coefficient (328.15 K) was determined as 14.6 ± 1; the activity coefficient (338.15 K) stood at 13.8 ± 0.9; the activity coefficient (348.15 K) was determined as 13.2 ± 0.9. Besides, the activity coefficient (358.15 K) came to 12.4 ± 0.8 and the activity coefficient (368.15 K) was found to be 11.9 ± 0.8.
In the case of `C=CCCC` [1-pentene] + CCCCCCOCn1cc[n+](COCCCCCC)c1.O=S(=O)([N-]S(=O)(=O)C(F)(F)F)C(F)(F)F, the activity coefficient (298.15 K) came to 1.9 ± 0.13; the activity coefficient (308.15 K) worked out at 1.87 ± 0.13; the activity coefficient (318.15 K) was found to be 1.83 ± 0.12; the activity coefficient (328.15 K) turned out to be 1.8 ± 0.12; the activity coefficient (338.15 K) stood at 1.77 ± 0.12; the activity coefficient (348.15 K) was found to be 1.75 ± 0.12. Besides, the activity coefficient runs as follows: (358.15 K) 1.72 ± 0.12; (368.15 K) 1.7 ± 0.11.
On to `CCCCCCCCC` [nonane] + CCCCCCOCn1cc[n+](COCCCCCC)c1.O=S(=O)([N-]S(=O)(=O)C(F)(F)F)C(F)(F)F, for which the activity coefficient (298.15 K) was 5.93 ± 0.4; the activity coefficient (308.15 K) came to 5.67 ± 0.39; the activity coefficient (318.15 K) came out at 5.42 ± 0.37; the activity coefficient (328.15 K) was determined as 5.22 ± 0.36; the activity coefficient (338.15 K) was found to be 5.01 ± 0.34; the activity coefficient (348.15 K) was determined as 4.84 ± 0.33. Moreover, the activity coefficient by setting is: (358.15 K) 4.68 ± 0.32; (368.15 K) 4.53 ± 0.31.
Consider `COC(C)(C)C` [2-methoxy-2-methylpropane] + CCCCCCOCn1cc[n+](C)c1.O=S(=O)([N-]S(=O)(=O)C(F)(F)F)C(F)(F)F, for which the activity coefficient runs as follows: (298.15 K) 1.26 ± 0.08; (308.15 K) 1.29 ± 0.08; (318.15 K) 1.32 ± 0.09; (328.15 K) 1.36 ± 0.09; (338.15 K) 1.39 ± 0.09; (348.15 K) 1.41 ± 0.09. For the same molecule, the activity coefficient reads like this: (358.15 K) 1.44 ± 0.09; (368.15 K) 1.46 ± 0.1.
On to `C#CCCCC` [1-hexyne] + CCCCCCOCn1cc[n+](C)c1.O=S(=O)([N-]S(=O)(=O)C(F)(F)F)C(F)(F)F, for which the activity coefficient runs as follows: (298.15 K) 1.93 ± 0.13; (308.15 K) 1.94 ± 0.13; (318.15 K) 1.95 ± 0.13; (328.15 K) 1.96 ± 0.13; (338.15 K) 1.97 ± 0.13; (348.15 K) 1.98 ± 0.13. Also, the activity coefficient is, setting by setting: (358.15 K) 1.98 ± 0.13; (368.15 K) 1.99 ± 0.14.
On to `CCO` [ethanol] + CCCCCCOCn1cc[n+](COCCCCCC)c1.O=S(=O)([N-]S(=O)(=O)C(F)(F)F)C(F)(F)F, for which the activity coefficient by setting is: (298.15 K) 1.25 ± 0.08; (308.15 K) 1.14 ± 0.07; (318.15 K) 1.04 ± 0.065; (328.15 K) 0.958 ± 0.06; (338.15 K) 0.886 ± 0.056; (348.15 K) 0.824 ± 0.053. Moreover, the activity coefficient (358.15 K) came out at 0.767 ± 0.05 and the activity coefficient (368.15 K) worked out at 0.719 ± 0.048.
As to `CC(C)=O` [acetone] + CCCCCCOCn1cc[n+](COCCCCCC)c1.O=S(=O)([N-]S(=O)(=O)C(F)(F)F)C(F)(F)F, the activity coefficient reads like this: (298.15 K) 0.262 ± 0.03; (308.15 K) 0.267 ± 0.03; (318.15 K) 0.272 ± 0.03; (328.15 K) 0.277 ± 0.03; (338.15 K) 0.281 ± 0.03; (348.15 K) 0.286 ± 0.031. In addition, the activity coefficient by setting is: (358.15 K) 0.29 ± 0.031; (368.15 K) 0.294 ± 0.031.
With `c1ccccc1` [benzene] + CCCCCCOCn1cc[n+](COCCCCCC)c1.O=S(=O)([N-]S(=O)(=O)C(F)(F)F)C(F)(F)F, the activity coefficient turned out to be 0.608 ± 0.043 (298.15 K); 0.608 ± 0.043 (308.15 K); 0.607 ± 0.042 (318.15 K); 0.607 ± 0.042 (328.15 K); 0.606 ± 0.042 (338.15 K); 0.606 ± 0.042 (348.15 K). Further, the activity coefficient stood at 0.606 ± 0.042 (358.15 K) and 0.606 ± 0.042 (368.15 K).
Take `CCCCCCC` [heptane] + CCCCCCOCn1cc[n+](C)c1.O=S(=O)([N-]S(=O)(=O)C(F)(F)F)C(F)(F)F: the activity coefficient runs as follows: (298.15 K) 10.6 ± 0.7; (308.15 K) 10 ± 0.7; (318.15 K) 9.51 ± 0.65; (328.15 K) 9.07 ± 0.62; (338.15 K) 8.65 ± 0.59; (348.15 K) 8.28 ± 0.56. The activity coefficient is, setting by setting: (358.15 K) 7.95 ± 0.54; (368.15 K) 7.66 ± 0.52.
As to `C=CCCCCCC` [oct-1-ene] + CCCCCCOCn1cc[n+](COCCCCCC)c1.O=S(=O)([N-]S(=O)(=O)C(F)(F)F)C(F)(F)F, the activity coefficient turned out to be 3.28 ± 0.22 (298.15 K); 3.2 ± 0.22 (308.15 K); 3.12 ± 0.21 (318.15 K); 3.05 ± 0.21 (328.15 K); 2.99 ± 0.2 (338.15 K); 2.93 ± 0.2 (348.15 K). Moreover, the activity coefficient by setting is: (358.15 K) 2.87 ± 0.2; (368.15 K) 2.83 ± 0.19.
As for `CCCO` [propan-1-ol] + CCCCCCOCn1cc[n+](C)c1.O=S(=O)([N-]S(=O)(=O)C(F)(F)F)C(F)(F)F, the activity coefficient was 1.83 ± 0.12 (298.15 K); 1.64 ± 0.11 (308.15 K); 1.49 ± 0.1 (318.15 K); 1.36 ± 0.09 (328.15 K); 1.24 ± 0.08 (338.15 K); 1.15 ± 0.07 (348.15 K). For the same molecule, the activity coefficient by setting is: (358.15 K) 1.07 ± 0.07; (368.15 K) 0.989 ± 0.062.
For the molecule `C#CCCCCCC` [1-octyne] + CCCCCCOCn1cc[n+](COCCCCCC)c1.O=S(=O)([N-]S(=O)(=O)C(F)(F)F)C(F)(F)F, the activity coefficient reads like this: (298.15 K) 1.65 ± 0.11; (308.15 K) 1.66 ± 0.11; (318.15 K) 1.66 ± 0.11; (328.15 K) 1.66 ± 0.11; (338.15 K) 1.67 ± 0.11; (348.15 K) 1.67 ± 0.11. Moreover, the activity coefficient was determined as 1.67 ± 0.11 (358.15 K) and 1.67 ± 0.11 (368.15 K).
As for `CCOCC` [diethyl ether] + CCCCCCOCn1cc[n+](C)c1.O=S(=O)([N-]S(=O)(=O)C(F)(F)F)C(F)(F)F, the activity coefficient turned out to be 1.35 ± 0.09 (298.15 K); 1.37 ± 0.09 (308.15 K); 1.38 ± 0.09 (318.15 K); 1.4 ± 0.09 (328.15 K); 1.41 ± 0.09 (338.15 K); 1.43 ± 0.09 (348.15 K). The activity coefficient is, setting by setting: (358.15 K) 1.44 ± 0.09; (368.15 K) 1.45 ± 0.1.
